Results as given in patent US20220119411A1, “IMMUNOMODULATORS, COMPOSITIONS AND METHODS THEREOF” (BETTA PHARMACEUTICALS CO., LTD, priority 2018, published 2022).
pIC50: −log10 of the molar value.

Molecular target: T1, PD-1/PD-L1 protein/protein interaction (Homo sapiens, UniProt Q9NZQ7)
T1 construct: Recombinant human PD-L1 protein (19-238) with a His-tag at the C-terminus; purchased AcroBiosystems PD1-H5229 (PD-L1); PD1-H5257 (PD-1)
Assay: PD-1/PD-L1 homogenous time-resolved fluorescence (HTRF) binding assay
Conditions: recombinant human PD-L1 (19-238)-His 10 nM, human PD-1 (25-167)-Fc 3 nM, 25° C., PBS pH 7.4
Protocol: Resolved Fluorescence (HTRF) Binding Assay
The assays were conducted in a standard black 384-well polystyrene plate with a final volume of 20 μL. Inhibitors were first serially diluted in DMSO and then added to the plate wells before the addition of other reaction components. The final concentration of DMSO in the assay was 1%. The assays were carried out at 25° C. in the PBS buffer (pH 7.4) with 0.05% Tween-20 and 0.1% BSA. Recombinant human PD-L1 protein (19-238) with a His-tag at the C-terminus was purchased from AcroBiosy stems (PD1-H5229). Recombinant human PD-1 protein (25-167) with Fc tag at the C-terminus was also purchased from AcroBiosystems (PD1-H5257). PD-L1 and PD-1 proteins were diluted in the assay buffer and 10 μL was added to the plate well. Plates were centrifuged and proteins were preincubated with inhibitors for 40 min. The incubation was followed by the addition of 10 μL of HTRF detection buffer supplemented with Europium cryptate-labeled anti-human IgG (PerkinElmer-AD0212) specific for Fc and anti-His antibody conjugated to SureLight®—Allophycocyanin (APC, PerkinElmer-AD0059H). After centrifugation, the plate was incubated at 25° C. for 60 min. Before reading on a PHERAstar FS plate reader (665 nm/620 nm ratio). Final concentrations in the assay were—3 nM PD1, 10 nM PD-L1, 1 nM europium anti-human IgG and 20 nM anti-His-Allophycocyanin. IC50 determination was performed by fitting the curve of percent control activity versus the log of the inhibitor concentration using the GraphPad Prism 5.0 software.
Data obtained for the Example compounds using the PD-1/PD-L1 homogenous time-resolved fluorescence (HTRF) binding assay described in Example A is provided in Table 2.

T1 sequence (Q9NZQ7 19-238): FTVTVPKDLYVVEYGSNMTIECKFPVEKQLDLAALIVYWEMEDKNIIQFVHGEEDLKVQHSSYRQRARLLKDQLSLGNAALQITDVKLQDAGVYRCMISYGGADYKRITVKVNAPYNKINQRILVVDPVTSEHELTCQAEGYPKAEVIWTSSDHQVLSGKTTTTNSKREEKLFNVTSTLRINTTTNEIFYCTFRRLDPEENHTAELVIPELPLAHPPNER

SMILES | pIC50
O=C(O)CN1CCc2nc(C(=O)N3CCCc4c(-c5ccccc5)cccc43)sc2C1 [Example 28, 2-(2-(5-phenyl-1,2,3,4-tetrahydroquinoline-1-carbonyl)-6,7-dihydrothiazolo[5,4-c]pyridin-5(4H)-yl)acetic acid] | 7.00 to 7.60
Cc1c(Nc2nccc3nccnc23)cccc1-c1cccc2c1CCN2C(=O)c1nc2c(s1)CN(CC(=O)O)CC2 [Example 29, 2-(2-(4-(2-methyl-3-(pyrido[3,4-b]pyrazin-5-ylamino)phenyl)indoline-1-carbonyl)-6,7-dihydrothiazolo[5,4-c]pyridin-5(4H)-yl)acetic acid] | 7.00 to 7.60
Cn1c(C(=O)N2CCc3c(-c4cccc5c4CCN5CCCN4CCC(O)C4)cccc32)nc2c1CCNC2 (stereo not shown) [Example 40, (1′-(3-(3-hydroxypyrrolidin-1-yl)propyl)-[4,4′-biindolin]-1-yl)(1-methyl-4,5,6,7-tetrahydro-1H-imidazo[4,5-c]pyridin-2-yl)methanone] | 7.00 to 7.60
O=C(CCN1CCC(O)C1)N1CCc2c(-c3cccc4c3CCN4C(=O)c3cn4c(n3)CNCC4)cccc21 (stereo not shown) [Example 42, 3-(3-hydroxypyrrolidin-1-yl)-1-(1′-(5,6,7,8-tetrahydroimidazo[1,2-a]pyrazine-2-carbonyl)-[4,4′-biindolin]-1-yl)propan-1-one] | ≥ 7.60
Cc1c(OCCCN2CCC(O)C2)cccc1-c1cccc2c1CCN2C(=O)c1nnc(CN)s1 (stereo not shown) [Example 43, (5-(aminomethyl)-1,3,4-thiadiazol-2-yl)(4-(3-(3-(3-hydroxypyrrolidin-1-yl)propoxy)-2-methylphenyl)indolin-1-yl)methanone] | ≥ 7.60
Cc1c(OCCCN2CCC(O)C2)cccc1-c1cccc2c1CCN2C(=O)c1nnc([C@@H]2CCCN2)s1 (stereo partly drawn) [Example 44, (4-(3-(3-(3-hydroxypyrrolidin-1-yl)propoxy)-2-methylphenyl)indolin-1-yl)(5-((S)-pyrrolidin-2-yl)-1,3,4-thiadiazol-2-yl)methanone] | ≥ 7.60
Cc1c(OCCCN2CCCC2)cccc1-c1cccc2c1CCN2C(=O)c1ncc(CNCCO)s1 [Example 45, (5-(((2-hydroxyethyl)amino)methyl)thiazol-2-yl)(4-(2-methyl-3-(3-(pyrrolidin-1-yl)propoxy)phenyl)indolin-1-yl)methanone] | ≥ 7.60
Cc1nc(C(=O)N2CCc3c(-c4cccc5c4CCN5C(=O)CCN4CCC(O)C4)cccc32)sc1CNCCO (stereo not shown) [Example 46, 1-(1′-(5-(((2-hydroxyethyl)amino)methyl)-4-methylthiazole-2-carbonyl)-[4,4′-biindolin]-1-yl)-3-(3-hydroxypyrrolidin-1-yl)propan-1-one] | ≥ 7.60
O=C(c1cn2c(n1)CNCC2)N1CCc2c(-c3cccc4c3cnn4CCCN3CCOCC3)cccc21 [Example 47, (4-(1-(3-morpholinopropyl)-1H-indazol-4-yl)indolin-1-yl)(5,6,7,8-tetrahydroimidazo[1,2-a]pyrazin-2-yl)methanone] | 7.00 to 7.60
Cn1ncc2c(-c3cccc4c3CCN4C(=O)c3cn4c(n3)CNCC4)cccc21 [Example 48, (4-(1-methyl-1H-indazol-4-yl)indolin-1-yl)(5,6,7,8-tetrahydroimidazo[1,2-a]pyrazin-2-yl)methanone] | 6.70 to 7.00
O=C(O)CN1CCc2nc(C(=O)N3CCc4c(-c5ccc(NC(=O)CCN6CCC(O)C6)cc5)cccc43)sc2C1 (stereo not shown) [Example 49, 2-(2-(4-(4-(3-(3-hydroxypyrrolidin-1-yl)propanamido)phenyl)indoline-1-carbonyl)-6,7-dihydrothiazolo[5,4-c]pyridin-5(4H)-yl)acetic acid] | ≥ 7.60
O=C(O)CN1CCc2nc(C(=O)N3CCc4c(-c5ccc(OCCCN6CCC(O)C6)cc5)cccc43)sc2C1 (stereo not shown) [Example 50, 2-(2-(4-(4-(3-(3-hydroxypyrrolidin-1-yl)propoxy)phenyl)indoline-1-carbonyl)-6,7-dihydrothiazolo[5,4-c]pyridin-5(4H)-yl)acetic acid] | ≥ 7.60
Cn1c(C(=O)N2CCCc3c(-c4cccc(OCCN5CCOCC5)c4)cccc32)nc2c1CN(CC(=O)O)CC2 [Example 51, 2-(3-methyl-2-(5-(3-(2-morpholinoethoxy)phenyl)-1,2,3,4-tetrahydroquinoline-1-carbonyl)-3,4,6,7-tetrahydro-5H-imidazo[4,5-c]pyridin-5-yl)acetic acid] | ≥ 7.60
Cn1c(C(=O)N2CCCc3c(-c4cccc(OCCN5CCOCC5)c4)cccc32)nc2c1CCN(CC(=O)O)C2 [Example 52, 2-(1-methyl-2-(5-(3-(2-morpholinoethoxy)phenyl)-1,2,3,4-tetrahydroquinoline-1-carbonyl)-1,4,6,7-tetrahydro-5H-imidazo[4,5-c]pyridin-5-yl)acetic acid] | ≥ 7.60

The remaining lines, values ahead:

pIC50 | SMILES
≥ 7.60 | Cn1ncc2c(-c3cccc4c3CCN4C(=O)c3nc4c(s3)CN(CC(=O)O)CC4)cccc21 [Example 30, 2-(2-(4-(1-methyl-1H-indazol-4-yl)indoline-1-carbonyl)-6,7-dihydrothiazolo[5,4-c]pyridin-5(4H)-yl)acetic acid]
≥ 7.60 | Cc1c(NC(=O)c2nc3c(n2C)CNCC3)cccc1-c1cccc2c1CCN2C(=O)c1nc2c(s1)CN(CC(=O)O)CC2 [Example 31, 2-(2-(4-(2-methyl-3-(3-methyl-4,5,6,7-tetrahydro-3H-imidazo[4,5-c]pyridine-2-carboxamido)phenyl)indoline-1-carbonyl)-6,7-dihydrothiazolo[5,4-c]pyridin-5(4H)-yl)acetic acid]
≥ 7.60 | Cc1c(NC(=O)c2nc3c(n2C)CCNC3)cccc1-c1cccc2c1CCN2C(=O)c1nc2c(s1)CN(CC(=O)O)CC2 [Example 32, 2-(2-(4-(2-methyl-3-(1-methyl-4,5,6,7-tetrahydro-1H-imidazo[4,5-c]pyridine-2-carboxamido)phenyl)indoline-1-carbonyl)-6,7-dihydrothiazolo[5,4-c]pyridin-5(4H)-yl)acetic acid]
≥ 7.60 | Cc1c(NC(=O)CCN2CCC(O)C2)cccc1-c1cccc2c1CCN2C(=O)c1nc2c(n1C)CN(CC(=O)O)CC2 (stereo not shown) [Example 33, 2-(2-(4-(3-(3-(3-hydroxypyrrolidin-1-yl)propanamido)-2-methylphenyl)indoline-1-carbonyl)-3-methyl-3,4,6,7-tetrahydro-5H-imidazo[4,5-c]pyridin-5-yl)acetic acid]
≥ 7.60 | Cc1c(NC(=O)CCN2CCC(O)C2)cccc1-c1cccc2c1CCN2C(=O)c1nc2c(n1C)CNCC2 (stereo not shown) [Example 34, 3-(3-hydroxypyrrolidin-1-yl)-N-(2-methyl-3-(1-(3-methyl-4,5,6,7-tetrahydro-3H-imidazo[4,5-c]pyridine-2-carbonyl)indolin-4-yl)phenyl)propanamide]
≥ 7.60 | Cn1c(C(=O)N2CCc3c(-c4cccc5c4CCN5C(=O)CCN4CCC(O)C4)cccc32)nc2c1CN(CC(=O)O)CC2 (stereo not shown) [Example 35, 2-(2-(1′-(3-(3-hydroxypyrrolidin-1-yl)propanoyl)-[4,4′-biindoline]-1-carbonyl)-3-methyl-3,4,6,7-tetrahydro-5H-imidazo[4,5-c]pyridin-5-yl)acetic acid]
≥ 7.60 | Cc1c(OCCCN2CCC(O)C2)cccc1-c1cccc2c1CCN2C(=O)c1nc2c(n1C)CN(CC(=O)O)CC2 (stereo not shown) [Example 36, 2-(2-(4-(3-(3-(3-hydroxypyrrolidin-1-yl)propoxy)-2-methylphenyl)indoline-1-carbonyl)-3-methyl-3,4,6,7-tetrahydro-5H-imidazo[4,5-c]pyridin-5-yl)acetic acid]
≥ 7.60 | Cc1c(OCCCN2CCC(O)C2)cccc1-c1cccc2c1CCN2C(=O)c1nc2c(n1C)CCN(CC(=O)O)C2 (stereo not shown) [Example 37, 2-(2-(4-(3-(3-(3-hydroxypyrrolidin-1-yl)propoxy)-2-methylphenyl)indoline-1-carbonyl)-1-methyl-1,4,6,7-tetrahydro-5H-imidazo[4,5-c]pyridin-5-yl)acetic acid]
≥ 7.60 | Cc1c(OCCCN2CCC(O)C2)cccc1-c1cccc2c1CCN2C(=O)c1nc2c(n1C)CCNC2 (stereo not shown) [Example 38, (4-(3-(3-(3-hydroxypyrrolidin-1-yl)propoxy)-2-methylphenyl)indolin-1-yl)(1-methyl-4,5,6,7-tetrahydro-1H-imidazo[4,5-c]pyridin-2-yl)methanone]
≥ 7.60 | Cc1c(OCCCN2CCC(O)C2)cccc1-c1cccc2c1CCN2C(=O)c1nc2c(n1C)CNCC2 (stereo not shown) [Example 39, (4-(3-(3-(3-hydroxypyrrolidin-1-yl)propoxy)-2-methylphenyl)indolin-1-yl)(3-methyl-4,5,6,7-tetrahydro-3H-imidazo[4,5-c]pyridin-2-yl)methanone]
≥ 7.60 | Cc1c(OCCCN2CCC(O)C2)cccc1-c1cccc2c1CCN2C(=O)c1cn2c(n1)CNCC2 (stereo not shown) [Example 41, (4-(3-(3-(3-hydroxypyrrolidin-1-yl)propoxy)-2-methylphenyl)indolin-1-yl)(5,6,7,8-tetrahydroimidazo[1,2-a]pyrazin-2-yl)methanone]
